The record followed here is patent US5580953A, “Amylin antagonist peptides and uses therefor” (Amylin Pharmaceuticals, Inc., priority 1991, dated 1996).

Assay [1] relates to insulin-stimulated glycogen synthesis in soleus muscle. Put plainly: rat soleus muscle assay. It counts as cell-based. The settings on record: for amylin agonist activity as measured by the soleus muscle assay: inhibition of insulin-stimulated glycogen synthesis; for amylin antagonist activity in the soleus muscle assay: resumption of insulin-stimulated glycogen synthesis in the presence of 100 nM rat amylin. The text has this:
Several assays have been developed to measure amylin activity and to evaluate new compounds. A receptor binding assay as described herein may be used to screen for or to identify compounds which bind to amylin receptors and which may, therefore, be candidate amylin agonists and antagonists. The rat soleus muscle assay may be used as a secondary procedure to screen for or to evaluate and differentiate between amylin agonists and amylin antagonists. In the soleus muscle assay, amylin and amylin agonists inhibit insulin-stimulated glycogenesis. Amylin antagonists counteract this amylin inhibition which results in the recovery of insulin-stimulated glycogenesis.
Assays of biological activity of amylin preparations in the soleus muscle are performed using previously described methods (Leighton, B. and Cooper, G. J. S. (1988) Nature 335: 632-635; Cooper, G. J. S., Leighton, B., Dimitriadis, G. D., Parry-Billings, M., Kowalchuk, J. M., Howland, K., Rothbard, J. B., Willis, A. C. and Reid, K. B. M. (1988) Proc. Natl. Acad. Sci. USA 85: 7763-7766.) In summary, amylin agonist activity is assessed by measuring the inhibition of insulin-stimulated glycogen synthesis in soleus muscle in response to an amylin agonist. Amylin antagonist activity is assessed by measuring the resumption of insulin-stimulated glycogen synthesis in the presence of 100 nM rat amylin and an amylin antagonist. Concentrations of peptide dissolved in carrier-free buffers are determined by quantitative amino acid analysis, as described therein. The ability of compounds to act as antagonists in this assay is determined by measuring IC50 values. Standard errors are determined by fitting of sigmoidal dose response curves using a four parameter logistic equation (De Lean, A., Munson, P. J., Guardabasso, V. and Rodbard, D. (1988) ALLFIT, Version 2.7, National Institute of Child Health and Human Development, N.I.H. Bethesda, Md., 1 diskette).

Assay [2] relates to insulin resistance caused by administered amylin. In words: infusion into rats, reversal of amylin-induced insulin resistance. The format is in vivo. The settings on record: infusions into rats. From the text: A number of amylin antagonists have been characterized using these biological assays. The N-terminally deleted peptides ^8-37 Peptide A, ^8-37 Peptide B and ^8-32 Peptide C, were all found to compete with amylin in the receptor binding assay. […] ID. NO. 195]; ^9-37 Peptide B [SEQ. ID. NO. 27]; ^11-37 Peptide B [SEQ. ID. NO. 29]; ^18-37 Peptide B [SEQ. ID. NO. 36]; ^26 Asp^27 Val^29 Ala^8-32 Peptide C [SEQ. ID. NO. 196]; ^30 Asn^32 Tyr^8-32 Peptide C [SEQ. ID. NO. 197]; Ac-^9-32Peptide C [SEQ. ID. NO. 48]; Ac-^30 Asn^32 Tyr^9-32 Peptide C [SEQ. ID. NO. 198]; ^9-23 Peptide C^29-37 Peptide A [SEQ. ID. NO. 199]; Ac-^9-23 Peptide C^29-37 Peptide A; Adm-^9-23 Peptide C^29-37 Peptide A; Ac-^11 Arg^15 Leu^18 Arg^30 Asn^32 Tyr^9-32 Peptide C [SEQ. ID. NO. 200]; Ac-^11 Arg^18 Arg^30 Asn^32 Tyr^9-32 Peptide C [SEQ. ID. NO. 201]; Ac-^18 Arg^30 Asn^32 Tyr^9-32 Peptide C [SEQ. ID. NO. 202]. Infusions of ^8-37 Peptide B [SEQ. ID. NO. 26], ^8-32 Peptide C [SEQ. ID. NO. 47], and Ac-^11 Arg ^18 Arg^30 […] Tyr^9-32 Peptide C [SEQ. ID. NO.

No end group written: not given here.

In the case of “^8-37 Peptide B (VTHRLAGLLSRSGGVVKNNFVPTNVGSKAF) [ID; NO; 26]”, in assay [1], the “amylin agonist activity as measured by the soleus muscle assay” value is recorded as “negligible agonist activity” and the “amylin antagonist activity in the soleus muscle assay” value is recorded as “act as amylin antagonists”. For the same substance, the “reversal of insulin resistance caused by administered amylin” value in assay [2] is listed as “reverse the insulin resistance caused by administered amylin”.

As for “VLGKLSQELHKLQTYPRTNTGSGTP-NH2 [^8-32 Peptide C]”, in assay [1], the “amylin agonist activity as measured by the soleus muscle assay” value is “negligible agonist activity” and the “amylin antagonist activity in the soleus muscle assay” value is “act as amylin antagonists”. For the same substance, the “reversal of insulin resistance caused by administered amylin” value in assay [2] is given as “reverse the insulin resistance caused by administered amylin”.
